We go through 85 compounds from PubChem BioAssay AID1645868 (Buhrlage Lab, Dana-Farber Cancer Institute and Novartis …, 2021).

The target in the assay is OTU domain-containing protein 3 (Homo sapiens) (UniProt Q5T2D3). The assay can be described thus: Validation of screening hits, potency titration, in vitro enzymatic, OTU domain-containing protein 3 DUB inhibitors (AID 1645868). The settings on record: purified OTUD3, ubiquitin-rhodamine cleavage fluorescence, 2 h.

Calls of active or inactive are those of the source.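 Rule for the calls: active = maximal percent inhibition of the deubiquitinase OTUD3 of at least 30% across the tested doses; inactive = the rest.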

Chain of OTU domain-containing protein 3 (Homo sapiens) (Q5T2D3 whole entry, looked up, the tested form may be a part): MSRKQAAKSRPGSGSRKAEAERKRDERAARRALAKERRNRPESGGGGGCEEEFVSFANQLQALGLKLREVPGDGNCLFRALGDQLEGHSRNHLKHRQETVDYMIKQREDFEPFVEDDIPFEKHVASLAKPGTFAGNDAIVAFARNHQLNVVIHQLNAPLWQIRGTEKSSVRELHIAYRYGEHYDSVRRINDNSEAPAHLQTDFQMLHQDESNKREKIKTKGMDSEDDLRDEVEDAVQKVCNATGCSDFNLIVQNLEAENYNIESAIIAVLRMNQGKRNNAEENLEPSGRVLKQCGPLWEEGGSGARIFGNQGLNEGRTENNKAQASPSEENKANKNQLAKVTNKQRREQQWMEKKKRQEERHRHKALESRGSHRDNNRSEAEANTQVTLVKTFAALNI

The term IC50 denotes the point on the concentration scale where inhibition reaches its midpoint. Turning to `CN(C)C1CCN(C(=O)c2cc(-c3ccn(-c4ccccc4)n3)n3ccccc23)CC1`, the IC50 is > 50 µM (inactive). In the case of `CCCCCn1c(Sc2ccc(C)cc2)nc2c1c(=O)[nH]c(=O)n2C` it was 35.1 µM; in that of `Cc1ccc2cc(CCNC(=O)c3cccc(Br)c3)c(=O)[nH]c2c1`, > 50 µM (inactive); in that of `O=C(NCc1ccc2c(c1)OCO2)c1nc(-c2ccccc2)n(-c2ccccc2)n1`, > 50 µM (inactive).

In the case of `Cc1ccc(OCCn2c(=N)n(C(C)C)c3ccccc32)cc1`, the IC50 is > 50 µM (inactive).

As to `COc1cnc(CSc2ncccn2)cc1OCC(=O)Nc1cc(C)ccc1C`, the IC50 is > 50 µM (inactive). On to `O=S1(=O)CCN(Cc2ccccc2)c2c(F)nc(N3CCCCC3)c(F)c21`, for which the IC50 is > 50 µM (inactive). Turning to `O=C(/C=C/c1ccc(F)cc1)N1CCc2ccccc2C1`, the IC50 is > 50 µM (inactive). On to `O=C1c2c(O)cccc2C2(Oc3cccc4cccc(c34)O2)C2OC12` (stereo not given), for which the IC50 is 22.5 µM. As for `Cn1c(=O)c(C(=O)CN2CCN(c3ccc(O)cc3)CC2)c(N)n(Cc2ccccc2)c1=O`, the figure is > 50 µM (inactive); as for `COc1ccc(-c2nc(SCC(=O)Nc3ccc(C(C)=O)cc3)n[nH]2)cc1`, 18.3 µM. Regarding `CC(=O)CN1CC2(CCN(Cc3ccc(F)cc3)CC2)COc2ccccc2S1(=O)=O`, the IC50 is > 50 µM (inactive). For `Cc1cccc(C)c1NC(=O)Cn1c(=O)n(CCCCC(=O)NCc2ccc3c(c2)OCO3)c(=O)c2ccccc21`, the IC50 is 2.82 µM. Turning to `N#Cc1ccc(Cn2nnc(-c3cccc(Cl)c3)n2)cc1`, the IC50 is > 50 µM (inactive). As to `O=C(CC(C(=O)Nc1ccc2c(c1)OCO2)C(=O)c1ccccc1)Nc1ccc(Cl)cc1F` (stereo not given), the IC50 is 15.4 µM. For the compound `COc1cc(NC(=O)Cc2ccccc2)ccc1NC(=O)c1cc2ccccc2o1`, the IC50 was 16.4 µM. `COC(=O)[C@]1(O)O[C@@]2(C(=O)OC)c3c(oc4cc(C)cc(O)c4c3=O)[C@H]3c4c(oc5cc(C)cc(O)c5c4=O)C[C@H]1[C@H]32`: the IC50 is > 50 µM (inactive). With `CNC(=O)C1CN(C(=O)c2ccc(OC)cc2)CC12CCCC2` (stereo not given), the IC50 was > 50 µM (inactive). As to `O=C(Nc1ccc(Cl)cc1F)c1cc(-c2ccccn2)n[nH]1`, the IC50 is > 50 µM (inactive). On to `CCOC(=O)c1ccc(S(=O)(=O)N2CCC(C(=O)OC(C)C(=O)Nc3cccc([N+](=O)[O-])c3)CC2)cc1` (stereo not given), for which the IC50 is 17.3 µM.

On to `CNc1nc2c(c(=O)n1C)CN(C(=O)Nc1cccc3ccccc13)CC2`, for which the IC50 is > 50 µM (inactive). As to `Cc1ccc(C)c(Cn2nnc3c(=O)[nH]c(C4CCN(S(=O)(=O)c5ccc(S(=O)(=O)NC6CC6)cc5)CC4)nc32)c1`, the IC50 is 35.1 µM. Turning to `O=C(CSc1nc2ccncc2[nH]1)Nc1ccc(Br)cc1F`, the IC50 is 49.8 µM. As for `Cc1cc(Nc2ccc(C(=O)NCc3ccco3)cc2)n2nc(-c3cccnc3)nc2n1`, the figure is 37.1 µM; as for `CCOc1ccc(NS(=O)(=O)c2ccc(NC(=O)Nc3ccccc3)cc2)cc1`, 37.2 µM; as for `Cc1nc(SCC(=O)Nc2cc(Cl)ccc2C)c2oc3ccccc3c2n1`, > 50 µM (inactive).

As for `COc1ccc(Cn2c(SCc3ccc(C(=O)NCCc4ccccc4)cc3)nc3ccncc32)cc1`, the IC50 was > 50 µM (inactive). On to `CCCCNC(=O)c1cc2cccnc2n(Cc2ccccc2)c1=O`, for which the IC50 was > 50 µM (inactive). As for `COc1ccc(C2CC(c3ccc(C)cc3)N(C(=O)C3CC3)c3ncnn32)cc1` (stereo not given), the figure is > 50 µM (inactive); as for `CC(C)(C)c1ccc(-c2nnc3n2-c2ccccc2SC3)cc1`, > 50 µM (inactive); as for `O=C(COC(=O)C1CCCN1C(=O)C12CC3CC(CC(C3)C1)C2)c1ccc(Cl)cc1` (stereo not given), > 50 µM (inactive). As for `O=C(Cn1cnc2c(oc3ccccc32)c1=O)NCc1ccccc1Cl`, the figure is 36.7 µM; as for `CCC(=O)OCc1cnc(C)c2oc(=O)c(-c3nc(-c4ccccc4)no3)cc12`, > 50 µM (inactive); as for `CN1C(=O)COc2ccc(NC(=O)c3cc(-c4ccccc4)on3)cc21`, > 50 µM (inactive). Regarding `O=C(COc1ccc2c(-c3ccccc3)cc(=O)oc2c1)Nc1cccnc1`, the IC50 was 21.5 µM.

For the compound `O=C(NCc1cccnc1)C1CCN(c2cnc(N3CCCCCC3)nc2)CC1`, the IC50 was > 50 µM (inactive). In the case of `c1ccc(CN2CCN(c3nc4ccccc4n4nnnc34)CC2)cc1`, the IC50 is > 50 µM (inactive).

As to `COc1ccc(CNC(=O)CCc2nnc3n(Cc4ccccc4Cl)c(=O)c4ccccc4n23)cc1`, the IC50 is 13.1 µM. `COc1c(Cl)ccc2c(=O)c3c(O)c4c5c(c3oc12)OCO[C@H]5[C@@H](OC)c1cc2c(c(O)c1-4)C(=O)N(C)[C@H](OC)[C@@H]2O`: the IC50 was > 50 µM (inactive). For the compound `COc1ccccc1-c1nc2c3c(ncn2n1)Oc1c(c(C)nn1-c1ccccc1)C3c1cccnc1` (stereo not given), the IC50 is > 50 µM (inactive). As for `COc1ccc(-c2cc3c(=O)n(CC(=O)Nc4ccccc4F)ccn3n2)cc1OC`, the IC50 was > 50 µM (inactive). On to `O=C(NCc1ccc(Br)cc1)c1ccc(-c2cccnc2)nc1`, for which the IC50 is > 50 µM (inactive). With `Nc1ccccc1SC(CC(=O)c1ccc(Cl)cc1)c1ccsc1` (stereo not given), the IC50 is > 50 µM (inactive). In the case of `Cc1ccc(-c2noc(-c3nnc(SCC(=O)NC4CCCC4)n3C)n2)cc1`, the IC50 is > 50 µM (inactive). As for `O=C(NCCn1ccc2ccccc21)c1cc2ccccc2oc1=O`, the IC50 is > 50 µM (inactive). As to `COc1ccc(S(=O)(=O)Nc2ccc(Nc3ccc(-n4cccn4)nn3)cc2)cc1`, the IC50 is > 50 µM (inactive).

As to `COCC(=O)Nc1cc(F)c2nc(N3CCOCC3)ccc2c1`, the IC50 is > 50 µM (inactive). As for `COc1ccc(OC)c(NC(=O)c2ccc(-n3nnnc3SC)cc2)c1`, the IC50 is > 50 µM (inactive). Regarding `COc1ccc(CCC(=O)Nc2ncc(C)s2)cc1OC`, the IC50 is > 50 µM (inactive). For `CCc1cc2c(=O)[nH]c(Cc3ccc(OC)cc3)nc2s1`, the IC50 is 33.4 µM. In the case of `COc1ccc(CC(=O)Nc2cccc(-c3nc4ncccc4o3)c2)cc1OC`, the IC50 was > 50 µM (inactive).

With `COc1cccc(-c2cc(=O)[nH]c(Nc3nc(C)c4ccccc4n3)n2)c1`, the IC50 is > 50 µM (inactive). On to `COc1ccc(NC(=O)c2ccnc(Nc3ccc(OC)cc3)c2)cc1`, for which the IC50 is > 50 µM (inactive). Consider `Cc1ccc(C(=O)N2CCCC3(C2)Nc2cccnc2NC3=NC2CCCC2)s1` (stereo not given), for which the IC50 was > 50 µM (inactive). With `CC(CCc1ccccc1)NC(=O)C(=O)c1cn(CC(=O)N2CCOCC2)c2ccccc12` (stereo not given), the IC50 was > 50 µM (inactive). On to `CCC(C)Oc1cccc(C(=O)Nc2ccc(CN3CCOCC3)cc2)c1` (stereo not given), for which the IC50 was > 50 µM (inactive).

As to `O=C(O)COc1ccccc1/C=C1\CCc2c1nc1ccccc1c2C(=O)O`, the IC50 is > 50 µM (inactive). As for `Fc1cccc(-n2cc(-c3noc(-c4ccccn4)n3)nn2)c1`, the figure is 27 µM. In the case of `O=C(c1cnccn1)N1CCc2[nH]c3ccc(F)cc3c2C1`, the IC50 was > 50 µM (inactive). In the case of `Cc1noc(-c2cccn(Cc3cccc(C(F)(F)F)c3)c2=O)n1`, the IC50 is > 50 µM (inactive). As for `Cc1nn(Cc2ccccc2)c(Cl)c1C(=O)NC1CCCc2ccccc21` (stereo not given), the figure is > 50 µM (inactive). As for `Cc1ccc2c(c1)N(C)C(=O)c1cc(NC(=O)c3ccc(F)cc3)ccc1O2`, the figure is 22.5 µM; as for `O=C(CNC(=O)c1cccc(F)c1)Nc1nc2ccccc2[nH]1`, 35.4 µM; as for `COc1cccc(-n2c(CNCc3cccnc3)nc3ccc([N+](=O)[O-])cc3c2=O)c1`, > 50 µM (inactive).

Consider `Cc1ccc2nc(CCc3ccc(NS(=O)(=O)c4cccc(Cl)c4C)cc3)[nH]c2c1`, for which the IC50 is > 50 µM (inactive). In the case of `CC(C)NC(=O)Cn1ccn2nc(-c3ccc(Cl)cc3)cc2c1=O` it was > 50 µM (inactive); in that of `Cc1c(C)n(-c2ccc(Br)cn2)c2ncnc(NCCCO)c12`, > 50 µM (inactive); in that of `COc1ccc(-c2cc(C(=O)NC3CCCCCC3)[nH]n2)cc1S(=O)(=O)N(C)C`, > 50 µM (inactive). `O=C1CN(C(=O)COC(=O)CCCN2C(=O)c3cccc4cccc(c34)C2=O)c2ccccc2N1`: the IC50 is > 50 µM (inactive). On to `COc1ccc(S(=O)(=O)N(C)Cc2cccs2)cc1OC`, for which the IC50 was > 50 µM (inactive). With `Cc1nnc(NCc2cccnc2)c2c1nnn2Cc1ccccc1Cl`, the IC50 was > 50 µM (inactive). As for `CCn1cc(NC(=O)CN2CCC3(CC=CCOC3)CC2)c(C)n1`, the figure is > 50 µM (inactive); as for `COc1ccccc1N1CCN(C(=O)c2ccc3c(c2)N(Cc2cc(C)ccc2C)C(=O)c2ccccc2S3=O)CC1` (stereo not given), > 50 µM (inactive); as for `Nc1c(-c2nc(-c3ccc4c(c3)OCO4)cs2)nnn1-c1ccccc1`, > 50 µM (inactive). As for `CC(C)Cc1nc2oc3c(N(C)CCO)ncnc3c2c2c1CCC2`, the figure is > 50 µM (inactive). With `O=C(O)CCCCCN1C(=O)CC(c2ccc(Cl)cc2)CC1=O`, the IC50 is 46.9 µM.

Take `COCCNC(=O)c1ccn(-c2ccc3ccc(-c4ccncc4)cn23)n1`: the IC50 is > 50 µM (inactive).

As to `CC1=C(C)C(c2c(-c3ccc(C)cc3)[nH]c3ccccc23)N(C(C)(C)C)C1=O` (stereo not given), the half-inhibitory concentration (IC50) was 8.84 µM.

Consider `COc1ccc(-c2nc(-c3nnn(Cc4ccc(F)cc4)c3C)no2)c(OC)c1`, for which the half-inhibitory concentration (IC50) is 20.4 µM. In the case of `Cc1cccc(NC(=O)CN2C(=O)COc3cc(S(=O)(=O)N4CCCC4)ccc32)c1C` it was 20.9 µM. For `COc1cccc(NC(=O)C2CCN(C(=O)c3cc(-c4cccnc4)n[nH]3)CC2)c1`, the IC50 was > 50 µM (inactive). For `CC1=C(c2ccc(Cl)cc2)S(=O)(=O)NC1=NCC(=O)Nc1ccc(F)cc1`, the IC50 was > 50 µM (inactive). Take `Cc1nc(N2CCCC2)ncc1C(=O)Nc1ccc(F)c(F)c1`: the IC50 was > 50 µM (inactive). `O=C(CSc1nnc2n1CCCCC2)Nc1ccc2[nH]c(=O)[nH]c2c1`: the IC50 is > 50 µM (inactive). In the case of `O=c1c(S(=O)(=O)c2cc(F)cc(F)c2)c[nH]c2cc(Cl)ccc12` it was 40.1 µM.
